Values belong to the molecule of their own block, whether it stands above or below them.
Legend:
PC-3 = test: Cell proliferation inhibition assay (MTT); format: cell-based; settings: Homo sapiens, 72 hours, read-out: Proliferation inhibitory activity IC50
MCF-7 = test: Cell proliferation inhibition assay (MTT); format: cell-based; settings: Homo sapiens, MCF7, 72 hours, read-out: Proliferation inhibitory activity IC50
ALK6(h) = ALK6(h) (Homo sapiens (Human), UniProt O00238); test: Kinase inhibition assay (KinaseProfiler, 33P-ATP); format: biochemical; settings: read-out: The percentage of the remaining active protein
PKCβI(h) = PKCβI(h) (Homo sapiens (Human), UniProt P05771); test: Kinase inhibition assay (KinaseProfiler, 33P-ATP); format: biochemical; settings: read-out: The percentage of the remaining active protein
PDGFRβ(h) = PDGFRβ(h) (Homo sapiens (Human), UniProt P09619); test: Kinase inhibition assay (KinaseProfiler, 33P-ATP); format: biochemical; settings: read-out: The percentage of the remaining active protein
mTOR/FKBP12(h) = mTOR/FKBP12(h) (Homo sapiens (Human), UniProt P42345); test: Kinase inhibition assay (KinaseProfiler, 33P-ATP); format: biochemical; settings: read-out: The percentage of the remaining active protein
[1] = molecular target: PI3 Kinase (p110a/p65a)(m) (Mus musculus (Mouse), UniProt P42337); test: Kinase inhibition assay (KinaseProfiler, 33P-ATP); format: biochemical; settings: read-out: The percentage of the remaining active protein
EGFR(T790M) = EGFR(T790M) (Homo sapiens (Human), UniProt P00533, T790M); test: Kinase inhibition assay (KinaseProfiler, 33P-ATP); format: biochemical; settings: EGFR(T790M)(h), read-out: The percentage of the remaining active protein
DYRK1B(h) = DYRK1B(h) (Homo sapiens (Human), UniProt Q9Y463); test: Kinase inhibition assay (KinaseProfiler, 33P-ATP); format: biochemical; settings: read-out: The percentage of the remaining active protein
CHK2(h) = CHK2(h) (Homo sapiens (Human), UniProt O96017); test: Kinase inhibition assay (KinaseProfiler, 33P-ATP); format: biochemical; settings: read-out: The percentage of the remaining active protein
NIM1(h) = NIM1(h) (Homo sapiens (Human), UniProt Q8IY84); test: Kinase inhibition assay (KinaseProfiler, 33P-ATP); format: biochemical; settings: read-out: The percentage of the remaining active protein
Rse = Rse (Homo sapiens (Human), UniProt Q06418); test: Kinase inhibition assay (KinaseProfiler, 33P-ATP); format: biochemical; settings: Rse(h), read-out: The percentage of the remaining active protein
PANC-1 = test: Cell proliferation inhibition assay (MTT); format: cell-based; settings: Homo sapiens, 72 hours, read-out: Proliferation inhibitory activity IC50
LKB1(h) = LKB1(h) (Homo sapiens (Human), UniProt Q15831); test: Kinase inhibition assay (KinaseProfiler, 33P-ATP); format: biochemical; settings: read-out: The percentage of the remaining active protein
[2] = molecular target: PI3 Kinase (p110d/p85a)(m) (Mus musculus (Mouse), UniProt O35904); test: Kinase inhibition assay (KinaseProfiler, 33P-ATP); format: biochemical; settings: read-out: The percentage of the remaining active protein
DAPK2(h) = DAPK2(h) (Homo sapiens (Human), UniProt Q9UIK4); test: Kinase inhibition assay (KinaseProfiler, 33P-ATP); format: biochemical; settings: read-out: The percentage of the remaining active protein
MST3(h) = MST3(h) (Homo sapiens (Human), UniProt Q9Y6E0); test: Kinase inhibition assay (KinaseProfiler, 33P-ATP); format: biochemical; settings: read-out: The percentage of the remaining active protein
Blk(m) = Blk(m) (Mus musculus (Mouse), UniProt P16277); test: Kinase inhibition assay (KinaseProfiler, 33P-ATP); format: biochemical; settings: read-out: The percentage of the remaining active protein
PDGFRα (V561D) = PDGFRα (V561D) (Homo sapiens (Human), UniProt P16234, V561D); test: Kinase inhibition assay (KinaseProfiler, 33P-ATP); format: biochemical; settings: PDGFRα(V561D)(h), read-out: The percentage of the remaining active protein
CK1γ1(h) = CK1γ1(h) (Homo sapiens (Human), UniProt Q9HCP0); test: Kinase inhibition assay (KinaseProfiler, 33P-ATP); format: biochemical; settings: read-out: The percentage of the remaining active protein
SAPK2a = SAPK2a (Homo sapiens (Human), UniProt Q16539); test: Kinase inhibition assay (KinaseProfiler, 33P-ATP); format: biochemical; settings: SAPK2a(h), read-out: The percentage of the remaining active protein
WNK3(h) = WNK3(h) (Homo sapiens (Human), UniProt Q9BYP7); test: Kinase inhibition assay (KinaseProfiler, 33P-ATP); format: biochemical; settings: read-out: The percentage of the remaining active protein
TAO3 = TAO3 (Homo sapiens (Human), UniProt Q9H2K8); test: Kinase inhibition assay (KinaseProfiler, 33P-ATP); format: biochemical; settings: TAO3(h), read-out: The percentage of the remaining active protein
MARK1(h) = MARK1(h) (Homo sapiens (Human), UniProt Q9P0L2); test: Kinase inhibition assay (KinaseProfiler, 33P-ATP); format: biochemical; settings: read-out: The percentage of the remaining active protein
cKit (V560G) = cKit (V560G) (Homo sapiens (Human), UniProt P10721, V560G); test: Kinase inhibition assay (KinaseProfiler, 33P-ATP); format: biochemical; settings: cKit(V560G)(h), read-out: The percentage of the remaining active protein
FGFR1(V561M)(h) = FGFR1(V561M)(h) (Homo sapiens (Human), UniProt P11362, V561M); test: Kinase inhibition assay (KinaseProfiler, 33P-ATP); format: biochemical; settings: read-out: The percentage of the remaining active protein
MSSK1(h) = MSSK1(h) (Homo sapiens (Human), UniProt Q9UPE1); test: Kinase inhibition assay (KinaseProfiler, 33P-ATP); format: biochemical; settings: read-out: The percentage of the remaining active protein
PI3KC2a(h) = PI3KC2a(h) (Homo sapiens (Human), UniProt O00443); test: Kinase inhibition assay (KinaseProfiler, 33P-ATP); format: biochemical; settings: read-out: The percentage of the remaining active protein
Abl(T315I) = Abl(T315I) (Homo sapiens (Human), UniProt P00519, T315I); test: Kinase inhibition assay (KinaseProfiler, 33P-ATP); format: biochemical; settings: Abl(T315I)(h); 10 μM; read-out: The percentage of the remaining active protein
CK1δ(h) = CK1δ(h) (Homo sapiens (Human), UniProt P48730); test: Kinase inhibition assay (KinaseProfiler, 33P-ATP); format: biochemical; settings: read-out: The percentage of the remaining active protein
PhKγ2(h) = PhKγ2(h) (Homo sapiens (Human), UniProt P15735); test: Kinase inhibition assay (KinaseProfiler, 33P-ATP); format: biochemical; settings: read-out: The percentage of the remaining active protein
JNK2α2(h) = JNK2α2(h) (Homo sapiens (Human), UniProt P45984); test: Kinase inhibition assay (KinaseProfiler, 33P-ATP); format: biochemical; settings: read-out: The percentage of the remaining active protein
ROCK-I(h) = ROCK-I(h) (Homo sapiens (Human), UniProt Q13464); test: Kinase inhibition assay (KinaseProfiler, 33P-ATP); format: biochemical; settings: read-out: The percentage of the remaining active protein
EphB3 = EphB3 (Homo sapiens (Human), UniProt P54753); test: Kinase inhibition assay (KinaseProfiler, 33P-ATP); format: biochemical; settings: EphB3(h), read-out: The percentage of the remaining active protein

Chain of Blk(m) (P16277 whole entry): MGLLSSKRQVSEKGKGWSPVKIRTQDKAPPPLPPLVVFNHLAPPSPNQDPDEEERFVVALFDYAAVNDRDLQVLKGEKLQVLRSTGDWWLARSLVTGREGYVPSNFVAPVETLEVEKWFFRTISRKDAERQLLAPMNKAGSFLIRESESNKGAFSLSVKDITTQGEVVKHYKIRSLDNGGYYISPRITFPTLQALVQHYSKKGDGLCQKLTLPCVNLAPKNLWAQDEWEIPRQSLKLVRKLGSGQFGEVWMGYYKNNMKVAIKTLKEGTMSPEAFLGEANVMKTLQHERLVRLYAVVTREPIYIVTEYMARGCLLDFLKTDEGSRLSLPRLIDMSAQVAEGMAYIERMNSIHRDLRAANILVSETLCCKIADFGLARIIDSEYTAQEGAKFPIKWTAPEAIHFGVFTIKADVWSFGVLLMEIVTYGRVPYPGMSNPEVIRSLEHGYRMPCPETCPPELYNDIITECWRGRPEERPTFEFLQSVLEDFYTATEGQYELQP
Chain of DAPK2(h) (Q9UIK4 whole entry): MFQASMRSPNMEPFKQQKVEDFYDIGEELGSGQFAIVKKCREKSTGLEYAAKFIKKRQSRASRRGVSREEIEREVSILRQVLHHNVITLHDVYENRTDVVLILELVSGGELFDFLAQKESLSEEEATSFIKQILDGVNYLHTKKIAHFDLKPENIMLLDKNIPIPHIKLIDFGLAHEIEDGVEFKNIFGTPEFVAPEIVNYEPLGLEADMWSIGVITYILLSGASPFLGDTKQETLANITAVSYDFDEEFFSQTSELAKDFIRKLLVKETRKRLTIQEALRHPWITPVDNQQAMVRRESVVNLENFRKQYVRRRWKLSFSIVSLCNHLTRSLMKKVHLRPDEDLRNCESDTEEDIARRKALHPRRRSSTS
Chain of PKCβI(h) (P05771 whole entry): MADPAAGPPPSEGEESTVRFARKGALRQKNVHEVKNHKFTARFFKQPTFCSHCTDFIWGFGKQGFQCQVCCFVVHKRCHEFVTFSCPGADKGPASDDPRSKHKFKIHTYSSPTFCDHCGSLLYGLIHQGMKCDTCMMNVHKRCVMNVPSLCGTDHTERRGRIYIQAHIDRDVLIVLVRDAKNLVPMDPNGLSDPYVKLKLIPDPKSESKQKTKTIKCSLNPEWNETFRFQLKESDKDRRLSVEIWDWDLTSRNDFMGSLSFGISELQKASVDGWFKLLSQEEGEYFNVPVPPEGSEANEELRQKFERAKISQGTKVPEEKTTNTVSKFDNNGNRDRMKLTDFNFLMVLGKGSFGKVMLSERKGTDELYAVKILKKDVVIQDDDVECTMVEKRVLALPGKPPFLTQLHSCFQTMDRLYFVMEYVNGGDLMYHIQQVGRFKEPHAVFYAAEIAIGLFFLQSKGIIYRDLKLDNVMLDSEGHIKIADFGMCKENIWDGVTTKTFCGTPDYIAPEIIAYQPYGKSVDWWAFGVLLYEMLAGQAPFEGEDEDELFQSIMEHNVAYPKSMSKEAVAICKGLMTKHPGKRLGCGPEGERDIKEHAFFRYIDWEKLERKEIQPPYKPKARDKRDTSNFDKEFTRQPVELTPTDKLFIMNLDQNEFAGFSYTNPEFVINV
Chain of ALK6(h) (O00238 14-502): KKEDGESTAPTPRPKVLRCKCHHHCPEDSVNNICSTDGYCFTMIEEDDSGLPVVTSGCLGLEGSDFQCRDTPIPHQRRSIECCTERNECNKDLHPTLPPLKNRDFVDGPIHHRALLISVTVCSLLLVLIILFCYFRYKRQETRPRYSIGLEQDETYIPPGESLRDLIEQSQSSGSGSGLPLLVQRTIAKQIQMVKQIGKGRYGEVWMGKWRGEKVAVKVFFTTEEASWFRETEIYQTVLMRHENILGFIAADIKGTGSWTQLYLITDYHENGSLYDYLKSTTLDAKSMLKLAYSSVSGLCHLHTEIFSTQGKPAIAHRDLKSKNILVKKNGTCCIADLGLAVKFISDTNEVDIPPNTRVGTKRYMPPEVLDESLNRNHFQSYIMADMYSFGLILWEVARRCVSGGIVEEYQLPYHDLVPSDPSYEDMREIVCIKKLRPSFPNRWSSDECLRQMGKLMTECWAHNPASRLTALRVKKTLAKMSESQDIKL
Chain of FGFR1(V561M)(h) (P11362 22-822 V561M): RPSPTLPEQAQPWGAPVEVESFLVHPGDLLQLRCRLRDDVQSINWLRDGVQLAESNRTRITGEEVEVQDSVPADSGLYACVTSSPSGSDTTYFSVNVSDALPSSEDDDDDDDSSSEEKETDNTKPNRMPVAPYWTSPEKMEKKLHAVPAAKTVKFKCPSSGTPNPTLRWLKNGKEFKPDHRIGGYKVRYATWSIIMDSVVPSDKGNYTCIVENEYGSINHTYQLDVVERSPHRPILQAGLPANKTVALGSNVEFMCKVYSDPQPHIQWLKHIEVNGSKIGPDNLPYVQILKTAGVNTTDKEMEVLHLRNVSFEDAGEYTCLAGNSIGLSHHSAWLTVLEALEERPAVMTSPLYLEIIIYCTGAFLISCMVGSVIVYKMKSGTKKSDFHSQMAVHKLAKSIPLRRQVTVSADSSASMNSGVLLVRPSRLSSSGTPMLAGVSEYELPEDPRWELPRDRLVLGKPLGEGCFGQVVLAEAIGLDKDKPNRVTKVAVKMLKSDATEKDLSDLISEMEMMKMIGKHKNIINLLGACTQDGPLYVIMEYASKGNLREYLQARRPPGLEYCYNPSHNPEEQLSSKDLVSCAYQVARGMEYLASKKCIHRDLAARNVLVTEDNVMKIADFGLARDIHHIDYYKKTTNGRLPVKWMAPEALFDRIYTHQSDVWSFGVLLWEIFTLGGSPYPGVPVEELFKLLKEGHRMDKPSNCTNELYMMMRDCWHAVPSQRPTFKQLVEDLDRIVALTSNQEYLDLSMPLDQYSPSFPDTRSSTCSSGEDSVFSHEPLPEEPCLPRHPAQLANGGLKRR
Chain of PI3KC2a(h) (O00443 whole entry): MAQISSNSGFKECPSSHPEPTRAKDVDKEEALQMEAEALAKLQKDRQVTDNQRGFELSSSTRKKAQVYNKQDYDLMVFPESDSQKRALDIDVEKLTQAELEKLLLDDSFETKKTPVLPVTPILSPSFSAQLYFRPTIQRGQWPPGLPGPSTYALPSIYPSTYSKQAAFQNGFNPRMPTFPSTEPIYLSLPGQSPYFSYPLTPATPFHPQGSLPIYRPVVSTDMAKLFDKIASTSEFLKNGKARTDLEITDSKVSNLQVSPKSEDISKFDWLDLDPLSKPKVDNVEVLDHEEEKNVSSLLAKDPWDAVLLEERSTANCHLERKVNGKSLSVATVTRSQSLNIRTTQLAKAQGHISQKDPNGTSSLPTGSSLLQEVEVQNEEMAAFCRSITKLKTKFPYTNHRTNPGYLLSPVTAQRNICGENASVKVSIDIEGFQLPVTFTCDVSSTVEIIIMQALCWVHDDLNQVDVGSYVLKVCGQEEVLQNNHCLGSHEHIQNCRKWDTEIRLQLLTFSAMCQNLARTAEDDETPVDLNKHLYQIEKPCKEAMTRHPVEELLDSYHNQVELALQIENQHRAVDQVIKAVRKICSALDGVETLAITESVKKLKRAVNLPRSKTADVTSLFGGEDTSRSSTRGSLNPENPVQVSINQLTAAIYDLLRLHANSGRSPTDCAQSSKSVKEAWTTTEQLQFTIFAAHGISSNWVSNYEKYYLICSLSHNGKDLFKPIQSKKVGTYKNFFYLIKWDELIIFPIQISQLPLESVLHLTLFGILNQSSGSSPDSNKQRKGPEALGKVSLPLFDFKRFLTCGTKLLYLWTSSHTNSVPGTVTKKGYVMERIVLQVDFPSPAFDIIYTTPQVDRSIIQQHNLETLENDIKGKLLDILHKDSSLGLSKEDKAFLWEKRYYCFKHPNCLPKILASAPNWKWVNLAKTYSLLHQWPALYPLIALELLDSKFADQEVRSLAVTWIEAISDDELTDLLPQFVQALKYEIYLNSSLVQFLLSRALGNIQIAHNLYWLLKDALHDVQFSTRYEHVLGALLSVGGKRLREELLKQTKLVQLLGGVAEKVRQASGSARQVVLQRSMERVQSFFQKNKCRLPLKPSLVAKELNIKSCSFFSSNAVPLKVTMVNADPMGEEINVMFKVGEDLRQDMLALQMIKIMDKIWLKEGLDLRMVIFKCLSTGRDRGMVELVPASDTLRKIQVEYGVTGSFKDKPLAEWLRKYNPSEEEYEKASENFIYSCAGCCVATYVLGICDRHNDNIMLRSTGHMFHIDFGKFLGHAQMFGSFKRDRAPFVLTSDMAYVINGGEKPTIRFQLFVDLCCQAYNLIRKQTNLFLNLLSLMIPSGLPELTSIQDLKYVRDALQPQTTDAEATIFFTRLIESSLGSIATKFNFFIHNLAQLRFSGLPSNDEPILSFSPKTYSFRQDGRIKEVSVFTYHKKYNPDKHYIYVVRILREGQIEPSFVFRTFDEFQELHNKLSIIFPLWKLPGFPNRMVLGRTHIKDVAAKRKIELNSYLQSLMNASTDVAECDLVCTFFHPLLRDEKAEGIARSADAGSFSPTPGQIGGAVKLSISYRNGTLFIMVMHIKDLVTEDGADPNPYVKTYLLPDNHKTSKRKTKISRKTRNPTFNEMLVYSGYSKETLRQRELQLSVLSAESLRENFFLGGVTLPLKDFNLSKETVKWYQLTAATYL
Chain of MST3(h) (Q9Y6E0 whole entry): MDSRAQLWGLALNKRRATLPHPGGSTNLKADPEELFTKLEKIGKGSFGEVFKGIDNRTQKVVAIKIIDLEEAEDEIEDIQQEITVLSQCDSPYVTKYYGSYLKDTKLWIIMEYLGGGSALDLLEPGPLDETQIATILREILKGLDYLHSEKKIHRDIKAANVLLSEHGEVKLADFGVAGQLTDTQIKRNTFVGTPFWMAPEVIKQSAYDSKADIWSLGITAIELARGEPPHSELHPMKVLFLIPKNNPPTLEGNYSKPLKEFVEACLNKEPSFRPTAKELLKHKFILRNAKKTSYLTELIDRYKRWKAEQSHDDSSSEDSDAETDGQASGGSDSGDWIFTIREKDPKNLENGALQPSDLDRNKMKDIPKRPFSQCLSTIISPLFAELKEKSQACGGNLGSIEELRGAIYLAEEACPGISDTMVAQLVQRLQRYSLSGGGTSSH

IC50 (PC-3): 3970 nM
IC50 (MCF-7): 1990 nM
SMILES: Cc1ccc(NC(=O)c2cccc(C(F)(F)F)c2)cc1C#Cc1nn(C2CCN(C)CC2)c2ncnc(N)c12 [Compound 31]

remaining activity at 10 µM (ALK6(h)): 18%
remaining activity at 10 µM (PKCβI(h)): 100%
remaining activity at 10 µM (PDGFRβ(h)): 87%
remaining activity at 10 µM (mTOR/FKBP12(h)): 119%
remaining activity at 10 µM [1]: 94%
remaining activity at 10 µM (EGFR(T790M)): 4%
remaining activity at 10 µM (DYRK1B(h)): 92%
remaining activity at 10 µM (CHK2(h)): 111%
remaining activity at 10 µM (NIM1(h)): 131%
remaining activity at 10 µM (Rse): 2%
IC50 (PANC-1): 1700 to 5000 nM
remaining activity at 10 µM (LKB1(h)): 94%
remaining activity at 10 µM [2]: 78%
remaining activity at 10 µM (DAPK2(h)): 95%
remaining activity at 10 µM (MST3(h)): 114%
remaining activity at 10 µM (Blk(m)): 1%
remaining activity at 10 µM (PDGFRα (V561D)): 0%
remaining activity at 10 µM (CK1γ1(h)): 83%
remaining activity at 10 µM (SAPK2a): 3%
remaining activity at 10 µM (WNK3(h)): 39%
remaining activity at 10 µM (TAO3): 2%
remaining activity at 10 µM (MARK1(h)): 94%
remaining activity at 10 µM (cKit (V560G)): 0%
remaining activity at 10 µM (FGFR1(V561M)(h)): 40%
remaining activity at 10 µM (MSSK1(h)): 56%
remaining activity at 10 µM (PI3KC2a(h)): 92%
remaining activity at 10 µM (Abl(T315I)): 1%
remaining activity at 10 µM (CK1δ(h)): 88%
remaining activity at 10 µM (PhKγ2(h)): 113%
remaining activity at 10 µM (JNK2α2(h)): 13%
remaining activity at 10 µM (ROCK-I(h)): 126%
remaining activity at 10 µM (EphB3): 5%
SMILES: Cc1ccc(NC(=O)c2ccc(C)c(C(F)(F)F)c2)cc1C#Cc1nn([C@H]2CC[C@H](O)CC2)c2ncnc(N)c12 [Compound 93]
